Laboratory results reported in ChEMBL document CHEMBL3885861, “Open TG-GATES”.

Organism: Rattus norvegicus
Test: Open TG-GATES - Regimen: Daily Repeat
Format: toxicity, organism-based, Sprague-Dawley
Parameters: regimen Daily Repeat, gender Male, age 6 weeks
Details: in vivo, po, 0 mg/kg, route gavage, dose level Control; for APTT / Bas / Eos / Fbg / Hb / Ht / Lym / MCH / MCHC / MCV / Mono / Neu / PT / Plat / RBC / Ret / WBC: tissue Blood; for KIDNEY_L / KIDNEY_R / KIDNEY_TOTAL: tissue Kidney; for LIVER: tissue Liver; for A/G / ALP / ALT / AST / BUN / CRE / Ca / Cl / DBIL / GLC / IP / K / LDH / Na / PL / RALB / TBIL / TC / TG / TP / gamma-GTP: tissue Plasma

CNC(=C[N+](=O)[O-])NCCSCc1ccc(CN(C)C)o1 [RANITIDINE]
TERMINAL_BW (72 h, time 3 day): 234.4 g
APTT (72 h, time 3 day): 18.8 s
Bas (72 h, time 3 day): 0%
Eos (72 h, time 3 day): 1%
Fbg (72 h, time 3 day): 243.4 mg/dL
Hb (72 h, time 3 day): 13.9 g/dL
Ht (72 h, time 3 day): 40.4%
Lym (72 h, time 3 day): 79.8%
MCH (72 h, time 3 day): 22.1 pg
MCHC (72 h, time 3 day): 34.4%
MCV (72 h, time 3 day): 64.2 fL
Mono (72 h, time 3 day): 2.6%
Neu (72 h, time 3 day): 15.2%
PT (72 h, time 3 day): 11.9 s
Plat (72 h, time 3 day): 112 x10_4/uL
RBC (72 h, time 3 day): 629.4 x10_4/ul
Ret (72 h, time 3 day): 5.1%
WBC (72 h, time 3 day): 95.3 x10_2/uL
KIDNEY_L (72 h, time 3 day): 1.1 g
KIDNEY_R (72 h, time 3 day): 1.1 g
KIDNEY_TOTAL (72 h, time 3 day): 2.2 g
LIVER (72 h, time 3 day): 11.5 g
A/G (72 h, time 3 day): 1.6
ALP (72 h, time 3 day): 924 IU/L
ALT (72 h, time 3 day): 35.2 IU/L
AST (72 h, time 3 day): 66.6 IU/L
BUN (72 h, time 3 day): 16.6 mg/dL
CRE (72 h, time 3 day): 0.4 mg/dL
Ca (72 h, time 3 day): 10.9 mg/dL
Cl (72 h, time 3 day): 103.8 meq/L
DBIL (72 h, time 3 day): 0.1 mg/dL
GLC (72 h, time 3 day): 198.8 mg/dL
IP (72 h, time 3 day): 7.4 mg/dL
K (72 h, time 3 day): 4.2 meq/L
LDH (72 h, time 3 day): 178.4 IU/L
Na (72 h, time 3 day): 140.4 meq/L
PL (72 h, time 3 day): 169.6 mg/dL
RALB (72 h, time 3 day): 3.5 g/dL
TBIL (72 h, time 3 day): 0.2 mg/dL
TC (72 h, time 3 day): 92.4 mg/dL
TG (72 h, time 3 day): 92.4 mg/dL
TP (72 h, time 3 day): 5.7 g/dL
gamma-GTP (72 h, time 3 day): 1.2 IU/L
TERMINAL_BW ([…], time 7 day): 265.4 g
TERMINAL_BW ([…], time 14 day): 305.8 g
TERMINAL_BW ([…], time 28 day): 385.4 g
APTT ([…], time 7 day): 19.3 s
Bas ([…], time 7 day): 0%
Eos ([…], time 7 day): 1.2%
Fbg ([…], time 7 day): 225.8 mg/dL
Hb ([…], time 7 day): 13.9 g/dL
Ht ([…], time 7 day): 39.4%
Lym ([…], time 7 day): 76.6%
MCH ([…], time 7 day): 21.8 pg
MCHC ([…], time 7 day): 35.3%
MCV ([…], time 7 day): 61.7 fL
Mono ([…], time 7 day): 2.4%
Neu ([…], time 7 day): 18.4%
PT ([…], time 7 day): 12.1 s
Plat ([…], time 7 day): 120.4 x10_4/uL
RBC ([…], time 7 day): 639 x10_4/ul
Ret ([…], time 7 day): 4.9%
WBC ([…], time 7 day): 90.8 x10_2/uL
APTT ([…], time 14 day): 20.1 s
Bas ([…], time 14 day): 0%
Eos ([…], time 14 day): 1%
Fbg ([…], time 14 day): 238.8 mg/dL
Hb ([…], time 14 day): 14.8 g/dL
Ht ([…], time 14 day): 42.2%
Lym ([…], time 14 day): 75.6%
MCH ([…], time 14 day): 20.6 pg
MCHC ([…], time 14 day): 35.2%
MCV ([…], time 14 day): 58.6 fL
Mono ([…], time 14 day): 2.4%
Neu ([…], time 14 day): 19.2%
PT ([…], time 14 day): 12 s
Plat ([…], time 14 day): 115.1 x10_4/uL
RBC ([…], time 14 day): 720.6 x10_4/ul
Ret ([…], time 14 day): 3.7%
WBC ([…], time 14 day): 101.2 x10_2/uL
APTT ([…], time 28 day): 20.9 s
Bas ([…], time 28 day): 0.4%
Eos ([…], time 28 day): 1.4%
Fbg ([…], time 28 day): 223.8 mg/dL
Hb ([…], time 28 day): 15.6 g/dL
Ht ([…], time 28 day): 43.7%
Lym ([…], time 28 day): 77.8%
MCH ([…], time 28 day): 20 pg
MCHC ([…], time 28 day): 35.7%
MCV ([…], time 28 day): 56.2 fL
Mono ([…], time 28 day): 2.6%
Neu ([…], time 28 day): 16.8%
PT ([…], time 28 day): 12.4 s
Plat ([…], time 28 day): 106.3 x10_4/uL
RBC ([…], time 28 day): 779.2 x10_4/ul
Ret ([…], time 28 day): 2%
WBC ([…], time 28 day): 91.9 x10_2/uL
KIDNEY_L ([…], time 7 day): 1.1 g
KIDNEY_R ([…], time 7 day): 1.1 g
KIDNEY_TOTAL ([…], time 7 day): 2.2 g
KIDNEY_L ([…], time 14 day): 1.2 g
KIDNEY_R ([…], time 14 day): 1.2 g
KIDNEY_TOTAL ([…], time 14 day): 2.4 g
KIDNEY_L ([…], time 28 day): 1.5 g
KIDNEY_R ([…], time 28 day): 1.4 g
KIDNEY_TOTAL ([…], time 28 day): 2.9 g
LIVER ([…], time 7 day): 12.5 g
LIVER ([…], time 14 day): 13.5 g
LIVER ([…], time 28 day): 15.9 g
A/G ([…], time 7 day): 1.5
ALP ([…], time 7 day): 967.8 IU/L
ALT ([…], time 7 day): 31.6 IU/L
AST ([…], time 7 day): 63.8 IU/L
BUN ([…], time 7 day): 15.4 mg/dL
CRE ([…], time 7 day): 0.4 mg/dL
Ca ([…], time 7 day): 10.6 mg/dL
Cl ([…], time 7 day): 103.8 meq/L
DBIL ([…], time 7 day): 0.096 mg/dL
GLC ([…], time 7 day): 219.2 mg/dL
IP ([…], time 7 day): 7.4 mg/dL
K ([…], time 7 day): 3.8 meq/L
LDH ([…], time 7 day): 164.8 IU/L
Na ([…], time 7 day): 140.8 meq/L
PL ([…], time 7 day): 147.4 mg/dL
RALB ([…], time 7 day): 3.4 g/dL
TBIL ([…], time 7 day): 0.1 mg/dL
TC ([…], time 7 day): 73.2 mg/dL
TG ([…], time 7 day): 103.6 mg/dL
TP ([…], time 7 day): 5.7 g/dL
gamma-GTP ([…], time 7 day): 1 IU/L
A/G ([…], time 14 day): 1.4
ALP ([…], time 14 day): 885.8 IU/L
ALT ([…], time 14 day): 38.2 IU/L
AST ([…], time 14 day): 64.2 IU/L
BUN ([…], time 14 day): 16.2 mg/dL
CRE ([…], time 14 day): 0.5 mg/dL
Ca ([…], time 14 day): 10.6 mg/dL
Cl ([…], time 14 day): 103 meq/L
DBIL ([…], time 14 day): 0.088 mg/dL
GLC ([…], time 14 day): 205.2 mg/dL
IP ([…], time 14 day): 7.2 mg/dL
K ([…], time 14 day): 3.9 meq/L
LDH ([…], time 14 day): 177 IU/L
Na ([…], time 14 day): 141.2 meq/L
PL ([…], time 14 day): 140.8 mg/dL
RALB ([…], time 14 day): 3.5 g/dL
TBIL ([…], time 14 day): 0.2 mg/dL
TC ([…], time 14 day): 67.2 mg/dL
TG ([…], time 14 day): 124.8 mg/dL
TP ([…], time 14 day): 6 g/dL
gamma-GTP ([…], time 14 day): 1 IU/L
A/G ([…], time 28 day): 1.3
ALP ([…], time 28 day): 677.6 IU/L
ALT ([…], time 28 day): 31.6 IU/L
AST ([…], time 28 day): 61.4 IU/L
BUN ([…], time 28 day): 17.2 mg/dL
CRE ([…], time 28 day): 0.5 mg/dL
Ca ([…], time 28 day): 10.4 mg/dL
Cl ([…], time 28 day): 103 meq/L
DBIL ([…], time 28 day): 0.092 mg/dL
GLC ([…], time 28 day): 214.6 mg/dL
IP ([…], time 28 day): 6.6 mg/dL
K ([…], time 28 day): 3.9 meq/L
LDH ([…], time 28 day): 126.8 IU/L
Na ([…], time 28 day): 140.8 meq/L
PL ([…], time 28 day): 132.8 mg/dL
RALB ([…], time 28 day): 3.4 g/dL
TBIL ([…], time 28 day): 0.1 mg/dL
TC ([…], time 28 day): 64.2 mg/dL
TG ([…], time 28 day): 85.8 mg/dL
TP ([…], time 28 day): 6.2 g/dL
gamma-GTP ([…], time 28 day): 0.8 IU/L
